Test results: patent US20150105252A1, “SUBSTITUTED PYRAZOLES AS HERBICIDES” (E I DU PONT DE NEMOURS AND COMPANY, priority 2013, published 2015)

Experiments:
Experiment in all cases: Test F preemergence
wild poinsettia = format: in vivo, Euphorbia heterophylla
Description: (§1) Seeds of plant species selected from corn (Zea mays), soybean (Glycine max), velvetleaf (Abutilon theophrasti), lambsquarters (Chenopodium album), wild poinsettia (Euphorbia heterophylla), pigweed, palmer (palmer pigweed, Amaranthus palmeri), common waterhemp (Amaranthus rudis), surinam grass (Brachiaria decumbens), large crabgrass (Digitaria sanguinalis), crabgrass, Brazil (Brazilian crabgrass, Digitaria horizontalis), fall panicum (Panicum dichotomiflorum), giant foxtail (Setaria faberii), green foxtail (Setaria viridis), goosegrass (Eleusine indica), johnsongrass (Sorghum halepense), common ragweed (Ambrosia elation), barnyardgrass (Echinochloa crus-galli), southern sandbur (Cenchrus echinatus), arrowleaf sida (Sida rhombifolia), Italian ryegrass (Lolium multiflorum), dayflower, VA (Virginia (VA) dayflower, Commelina virginica), field bindweed (Convolvulus arvensis), cocklebur (common cocklebur, Xanthium strumarium), morningglory (Ipomoea coccinea), nightshade (eastern black nightshade, Solanum ptycanthum), kochia (Kochia scoparia), yellow nutsedge (Cyperus esculentus), and hairy beggarticks (Bidens pilosa), were planted into a silt loam soil and treated preemergence with test chemicals formulated in a non-phytotoxic solvent mixture which included a surfactant.
(§2) At the same time, plants from these crop and weed species and also horseweed (Canada horseweed, Conyza canadensis), smartweed (ladysthumb smartweed, Polygonum persicaria), waterhemp_RES1, (ALS & Triazine resistant common waterhemp, Amaranthus rudis), and waterhemp_RES2, (ALS & HPPD resistant common waterhemp, Amaranthus rudis) were treated with postemergence applications of test chemicals formulated in the same manner. Plants ranged in height from 2 to 18 cm for postemergence treatments (1- to 4-leaf stage). Treated plants and controls were maintained in a greenhouse for 14 to 21 days, after which time all species were compared to controls and visually evaluated. Plant response ratings, summarized in Table F, are based on a scale of 0 to 100 where 0 is no effect and 100 is complete control. A dash (-) response means no test result.

crabgrass, Brazil = format: in vivo, Digitaria horizontalis
Description: as §1, §2

green foxtail = format: in vivo, Setaria viridis
Description: as §1, §2

hairy beggarticks = format: in vivo, Bidens pilosa
Description: as §1, §2

[1] = Preemergence, 62 g ai/ha, scale 0 to 100
[2] = Preemergence, 125 g ai/ha, scale 0 to 100
[3] = preemergence, 8 g ai/ha, scale 0 to 100, 100 is complete control
[4] = preemergence, 16 g ai/ha, scale 0 to 100, 100 is complete control
[5] = Preemergence, 16 g ai/ha, scale 0 to 100
[6] = Preemergence, 250 g ai/ha, scale 0 to 100

| Compound | Plant response rating, Wild Poinsettia (wild poinsettia; [1]) | Plant response rating, Wild Poinsettia (wild poinsettia; [2]) | Plant response rating, Wild Poinsettia (wild poinsettia; [3]) | Plant response rating, Wild Poinsettia (wild poinsettia; [4]) | Plant response rating, Crabgrass, Brazil (crabgrass, Brazil; [5]) | Plant response rating, Crabgrass, Brazil (crabgrass, Brazil; [1]) | Plant response rating, Crabgrass, Brazil (crabgrass, Brazil; [2]) | Plant response rating, Crabgrass, Brazil (crabgrass, Brazil; [3]) | Plant response rating, Crabgrass, Brazil (crabgrass, Brazil; [4]) | Plant response rating, Green Foxtail (green foxtail; [1]) | Plant response rating, Green Foxtail (green foxtail; [2]) | Plant response rating, Green Foxtail (green foxtail; [3]) | Plant response rating, Green Foxtail (green foxtail; [4]) | Plant response rating, Hairy Beggarticks (hairy beggarticks; [1]) | Plant response rating, Hairy Beggarticks (hairy beggarticks; [2]) | Plant response rating, Hairy Beggarticks (hairy beggarticks; [3]) | Plant response rating, Hairy Beggarticks (hairy beggarticks; [4]) | also measured |
| --- | --- | --- | --- | --- | --- | --- | --- | --- | --- | --- | --- | --- | --- | --- | --- | --- | --- | --- |
| CCNC(=O)c1cc(CC)n(Cc2ccnc(C(F)(F)F)c2)n1 [Compound 196] | 35 | 65 | 0 | 5 | 100 | 100 | 100 | 30 | 75 | 75 | 100 | 0 | 0 | 15 | 35 | 0 | 0 | – |
| Cc1cc(C(=O)NC(C)C)nn1Cc1ccnc(C(F)(F)F)c1 [Compound 197] | 35 | 60 | 5 | 0 | 85 | 100 | 100 | 0 | 75 | 35 | 65 | 0 | 0 | 25 | 20 | 0 | 0 | – |
| CCc1cc(C(=O)NC2CC2)nn1Cc1ccnc(OCC(F)(F)F)c1 [Compound 200] | 15 | 20 | – | 0 | 35 | 95 | 100 | – | 0 | 5 | 60 | – | 0 | 0 | 0 | – | 0 | Plant response rating, Wild Poinsettia (wild poinsettia; [6]): 35; Plant response rating, Crabgrass, Brazil (crabgrass, Brazil; [6]): 100; Plant response rating, Green Foxtail (green foxtail; [6]): 85; Plant response rating, Hairy Beggarticks (hairy beggarticks; [6]): 40 |
